Measurements reported in publication PMC8895377, “In Vivo Targeting Replication Protein A for Cancer Therapy” (Frontiers in Oncology, 2022).
Where two headings read alike, the source gives them in different places.

Tests used:
[1] = Intrinsic clearance and half-life in rat microsomes; format: in vitro ADME; conditions: for microsomal CLint: rat, microsomes
Text: Toward the goal to identify efficacious and safe RPAi 329 treatment regimens, we conducted single-agent screening in two lung cancer cell line-derived xenograft models. […] Having optimized cellular uptake and solubility via the addition of the propyl morpholino in 329 and 2004, we sought to determine how these modifications impact in vivo anticancer activity using two NSCLC models, A549 adenocarcinoma and H460 large cell carcinoma. […] Analyses of intrinsic clearance and half-life were conducted in mouse and rat microsomes ( Table 1 ). […] These values are less than the rate of 48, which is considered rapid clearance. In rat microsomes, rates of ~64 were obtained for 329 and are less than the rapid rate of 71.

[2] = test system: H460 NSCLC cells; experiment: CCK-8 viability assay; format: cell-based, human; conditions: H460, 48 h, compared to 551 predecessor
Protocol: Cell lines were obtained from ATCC and maintained as monolayer cultures in RPMI 1640 medium (H460) or Dulbecco’s Modified Eagle's Medium (DMEM) (A549) supplemented with 10% fetal bovine serum. H460 and A549 cells were plated at 2.5 × 10^3 cells/well and A2780 and GCT27 cells plated at 5 × 10^3 cells/well in a 96-well plate and incubated for 18–24 h prior to treatments. Cells were treated with the indicated concentration of RPAi for 48 h. The vehicle (DMSO) concentration was held constant at 1%. Cell metabolism/viability was assessed by a mitochondrial metabolism assay (CCK-8) as we have described previously ([10]). The generation of the water-soluble formazan product by cellular dehydrogenases is proportional to the number of living cells. Following incubation with CCK-8 reagent, absorbance was measured at 450 nm with a BioTek Synergy H1 plate reader. Values were compared to those of vehicle-treated controls to determine percent viability, and the results represent the average and SEM of triplicate determinations.

[3] = test system: H460 cells; experiment: DNA fiber analysis of replication fork dynamics; format: cell-based, human
Protocol: Analysis of DNA replication intermediates was performed as previously described with minor modifications ([11], [12]). H460 cells were seeded in 6-well plates at a density of 2 × 10^5 cells. […] After harvesting, the cells were resuspended in PBS at a concentration of 1,000,000 cells/ml, and 2 µl of the cell suspension was mixed with 8 µl of lysis buffer (200 mM Tris-HCl pH 7.5, 50 mM EDTA, 0.5% SDS) on a Superfrost Plus microscope slide (Fisher Scientific). After 6 min of incubation, the slides were tilted at a 45-degree angle to allow cell lysates to slowly run down the slide. After air-drying, the slides were fixed in methanol:acetic acid (3:1) and stored at 4°C. DNA fibers were denatured with 2.5N HCl for 1 h, washed with PBS, and blocked with 5% BSA in PBS-T (PBS + 0.1% Tween-20) for 1 h. […] Excess antibodies were removed by washing with PBS-T 3 times. After air-drying, the slides were mounted onto a coverslip with mounting medium. Fiber tracts were imaged with a Nikon epifluorescence microscope using a 40× oil immersion objective, and 100 fibers for each group were analyzed in ImageJ where the ratios of CldU : IdU were compared using pixel length. Data were analyzed by ANOVA with Bonferroni test for multiple comparisons.
(A) Schematic depiction of experimental design. DNA was pulse-labeled with IdU for 20 min. After IdU removal, replication forks were stalled by the addition of HU or left to replicate with vehicle treatment. HU was removed, and replication was labeled with CldU. Following CldU, cells were treated with the DDRi or vehicle. […] Data presented are combined from three individual experiments (100 fibers analyzed per experiment; 300 fibers total). Red bar indicates the median value of CldU/IdU.

## CCOc1ccc2cc(C3CC(c4ccc(I)cc4)=NN3C(=O)CCCC(=O)NCCCN3CCOCC3)c(Cl)nc2c1 (stereo not drawn) [compound 329]
[1]; Rat microsomes
  half-life: 21.7 min
[1]; Rat microsomes, read-out: CLint
  microsomal CLint: 63.8 µL/min/mg
[1]; rat microsomes, read-out: rate of clearance
  microsomal CLint: ~64 µL/min/mg
[2]
  single-agent cellular anticancer activity (CCK-8): potent single-agent activity
[3]; H460, HU 2.5 mM then 329 50 µM or VE-822 2 µM
  CldU/IdU signal after HU: significant decrease in CldU/IdU signal
[3]; H460, without HU, 329 50 µM, VE-822 2 µM, 2 h
  CldU/IdU, inhibitor alone: minimal effects
